Common to all, as to assay type: cell-based
Data set [1] in a line: MTT assay, cell survival in RAW 264.7. The conditions noted are these: mouse, RAW 264.7 cells, RAW 264.7 cell line, read-out: LC50. On the procedure:
After 24 h, the supernatant was removed, and 500 μg/ml of 3-[4,5-dimethylthiazol-2-yl]-2,5 diphenyl tetrazolium bromide (MTT) solution (Invivogen) was added. After a 3 h incubation, the supernatant was removed, and DMSO was added to dissolve the formazan dye.
One-tailed paired Student’s t-tests were performed using Microsoft Excel (Microsoft). […] The therapeutic index was calculated as […]. Animal experimental results are expressed as mean ± standard deviation and analyzed using SPSS v.20 (IBM SPSS Statistics). Homogeneity of variance was assessed using Levene’s test.
Data are from at least three independent experiments (n = 3) and statistical differences between the induced case and other cases were analyzed and verified using a one-tailed Student’s t-test (*P < 0.05, **P < 0.01, ***P < 0.001).
On the technique in general: Tetrazolium dyes change colour on reduction, which living cells bring about.

Data set [2] deals with T1, TLR7 (Mus musculus, UniProt P58681).
T1 construct: endogenous in cells; host or cells: RAW 264.7
T1 sequence (P58681 27-1050): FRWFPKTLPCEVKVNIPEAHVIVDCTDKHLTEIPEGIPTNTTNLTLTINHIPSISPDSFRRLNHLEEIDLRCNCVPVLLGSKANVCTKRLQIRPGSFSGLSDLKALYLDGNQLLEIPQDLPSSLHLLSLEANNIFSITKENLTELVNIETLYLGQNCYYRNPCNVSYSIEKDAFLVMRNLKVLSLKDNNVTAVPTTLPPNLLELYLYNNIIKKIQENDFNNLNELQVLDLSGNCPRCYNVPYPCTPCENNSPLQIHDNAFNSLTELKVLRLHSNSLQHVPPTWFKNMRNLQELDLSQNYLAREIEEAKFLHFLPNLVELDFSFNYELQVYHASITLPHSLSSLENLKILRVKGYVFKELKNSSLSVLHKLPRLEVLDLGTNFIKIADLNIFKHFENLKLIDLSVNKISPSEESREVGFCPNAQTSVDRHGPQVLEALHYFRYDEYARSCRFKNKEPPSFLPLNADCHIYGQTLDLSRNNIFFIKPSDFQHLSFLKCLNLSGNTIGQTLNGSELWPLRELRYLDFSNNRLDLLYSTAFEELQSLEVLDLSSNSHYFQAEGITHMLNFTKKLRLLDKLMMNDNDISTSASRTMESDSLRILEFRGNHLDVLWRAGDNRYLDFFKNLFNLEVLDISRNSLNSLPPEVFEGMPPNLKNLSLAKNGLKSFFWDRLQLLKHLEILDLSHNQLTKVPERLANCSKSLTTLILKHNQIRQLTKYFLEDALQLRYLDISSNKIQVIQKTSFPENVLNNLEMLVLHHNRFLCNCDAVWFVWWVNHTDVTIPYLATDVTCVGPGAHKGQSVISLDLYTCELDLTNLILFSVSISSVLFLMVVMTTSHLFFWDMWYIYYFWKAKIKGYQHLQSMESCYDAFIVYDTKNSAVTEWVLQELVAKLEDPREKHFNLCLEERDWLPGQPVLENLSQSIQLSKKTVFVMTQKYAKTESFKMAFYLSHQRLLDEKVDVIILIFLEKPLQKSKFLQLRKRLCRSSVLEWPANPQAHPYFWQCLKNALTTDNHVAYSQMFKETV
Put plainly: TLR7 inhibition, TNF-α secretion (ELISA) in RAW 264.7. As to the method:
(§1) RAW 264.7 and differentiated THP-1 cells were seeded into 96-well plates at 2 × 10^4 cells per well, while Daudi cells were seeded at 5 × 10^4 cells per well. After stabilization for 30 min, cells were stimulated with specific TLR agonists for 4 or 24 h. Supernatants were diluted and transferred to precoated ELISA plates to measure TNF-α secretion using kits from Invitrogen. Optical absorbance was measured using a BioTek Synergy HTX multimode microplate reader, and data were interpolated using BioTek Gen5 software.
(§2) One-tailed paired Student’s t-tests were performed using Microsoft Excel (Microsoft). Semi-logarithmic conversions and nonregression curve analyses for calculating 50% lethal concentration (LC50) and 50% inhibitory concentration (IC50) values were conducted using GraphPad Prism 7.0 (GraphPad). The therapeutic index was calculated as […]. Animal experimental results are expressed as mean ± standard deviation and analyzed using SPSS v.20 (IBM SPSS Statistics). Homogeneity of variance was assessed using Levene’s test.
(§3) The cells were activated with agonistic ligands: […], TLR3 (poly I:C, 2 μg/ml, 24 h), TLR4 (LPS, 10 or 100 ng/ml, 4 h), TLR5 (FLA-ST, 500 ng/ml, 4 h), TLR7 (ORN06/LyoVec, 2 μg/ml, 24 h; and IMQ, 1 μg/ml, 4 h), TLR8 (TL8-506, 2 μg/ml, 24 h) and TLR9 (ODN2395, 1 μM, 4 h) at various concentrations in RAW 264.7 cells, human Daudi cells and THP-1 cells. Data are from at least three independent experiments (n = 3) and statistical differences between the induced case and other cases were analyzed and verified using a one-tailed Student’s t-test (*P < 0.05, **P < 0.01, ***P < 0.001).
(In an ELISA, binding on a coated surface is turned into a signal by an enzyme label.)

The target in data set [3] is T2, TLR9 (Mus musculus, UniProt Q9EQU3).
T2 construct: endogenous in cells; host or cells: RAW 264.7
T2 sequence (Q9EQU3 26-1032): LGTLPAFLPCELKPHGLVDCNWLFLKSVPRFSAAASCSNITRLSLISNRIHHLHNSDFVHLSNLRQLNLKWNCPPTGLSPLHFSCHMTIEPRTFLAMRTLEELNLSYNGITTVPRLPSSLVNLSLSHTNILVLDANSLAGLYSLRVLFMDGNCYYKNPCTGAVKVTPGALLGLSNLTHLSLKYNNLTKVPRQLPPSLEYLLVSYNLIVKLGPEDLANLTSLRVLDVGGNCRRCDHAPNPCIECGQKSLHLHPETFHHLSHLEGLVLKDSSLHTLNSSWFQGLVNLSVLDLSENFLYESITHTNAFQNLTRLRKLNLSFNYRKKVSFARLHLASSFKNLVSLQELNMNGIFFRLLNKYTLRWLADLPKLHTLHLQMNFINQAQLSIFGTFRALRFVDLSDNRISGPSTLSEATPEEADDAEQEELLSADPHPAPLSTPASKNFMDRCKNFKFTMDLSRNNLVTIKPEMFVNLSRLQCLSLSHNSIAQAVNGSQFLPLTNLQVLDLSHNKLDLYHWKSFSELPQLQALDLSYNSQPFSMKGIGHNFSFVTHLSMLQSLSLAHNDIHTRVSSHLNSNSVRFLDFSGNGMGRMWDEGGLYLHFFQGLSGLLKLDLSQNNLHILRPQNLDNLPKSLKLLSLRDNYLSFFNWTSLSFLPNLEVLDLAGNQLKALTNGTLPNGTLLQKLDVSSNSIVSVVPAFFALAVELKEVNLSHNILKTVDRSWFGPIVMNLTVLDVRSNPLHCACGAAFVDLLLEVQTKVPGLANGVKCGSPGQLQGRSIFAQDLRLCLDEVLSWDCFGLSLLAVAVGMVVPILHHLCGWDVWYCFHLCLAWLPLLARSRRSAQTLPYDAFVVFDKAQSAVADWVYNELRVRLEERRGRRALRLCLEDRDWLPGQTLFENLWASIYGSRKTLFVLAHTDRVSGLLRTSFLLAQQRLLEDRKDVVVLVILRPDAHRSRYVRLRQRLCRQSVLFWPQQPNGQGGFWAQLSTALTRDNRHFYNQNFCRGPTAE
The data set can be described thus: TLR9 inhibition, TNF-α secretion (ELISA) in RAW 264.7. The conditions noted are these: RAW 264.7 cell line; read-out: TLR9 IC50 (mTNFα). On the procedure:
as §1, §2, §3

Data set [4] has as its system endosomal TLRs. Put plainly: Endosomal TLR-mediated TNF-α production, summary over cell lines. The conditions noted are these: dose-dependent, without inducing cytotoxic effects. On the procedure:
as §1
TLR activation triggers the NF-κB pathway, resulting in increased production of pro-inflammatory cytokines, such as TNF-α and IL-6.

The values below come from paper PMC12508057, “Discovery of ETI41 and ETI60: novel selective endosomal Toll-like receptor inhibitors for the treatment of autoimmune diseases” (Experimental & Molecular Medicine, 2025).

For orientation: IC50 means the concentration that gives 50% inhibition.

For the compound `Cc1c(C)n(CCCN(C)C)c2nc3c(c(N)c12)CCCCC3` [ETI15, 1-(3-(dimethylamino)propyl)-2,3-dimethyl-1,5,6,7,8,9-hexahydrocyclohepta[b]pyrrolo[3,2-e]pyridin-4-amine], in data set [1], the CC50 at 24 h was 67.9 µM. For the same compound, the IC50 in data set [2] (RAW 264.7 cell line, read-out: TLR7 IC50 (mTNFα)) was found to be 2.81 µM; in data set [3], 0.36 µM. In data set [2] (therapeutic index, RAW 264.7), the “TLR7 TI value” came out at 24.16. Further, the “TNF-α production by RAW 264.7 and Daudi cells” value in data set [4] is given as “effectively inhibited”.
